Laboratory results published in patent US11802120B2, “Fused cyclic urea derivatives as CRHR2 antagonist” (RaQualia Pharma Inc., priority 2018, dated 2023).

Molecular target: T1, human CRHR2-alpha (Homo sapiens, UniProt Q13324)
T1 sequence (Q13324 1-411): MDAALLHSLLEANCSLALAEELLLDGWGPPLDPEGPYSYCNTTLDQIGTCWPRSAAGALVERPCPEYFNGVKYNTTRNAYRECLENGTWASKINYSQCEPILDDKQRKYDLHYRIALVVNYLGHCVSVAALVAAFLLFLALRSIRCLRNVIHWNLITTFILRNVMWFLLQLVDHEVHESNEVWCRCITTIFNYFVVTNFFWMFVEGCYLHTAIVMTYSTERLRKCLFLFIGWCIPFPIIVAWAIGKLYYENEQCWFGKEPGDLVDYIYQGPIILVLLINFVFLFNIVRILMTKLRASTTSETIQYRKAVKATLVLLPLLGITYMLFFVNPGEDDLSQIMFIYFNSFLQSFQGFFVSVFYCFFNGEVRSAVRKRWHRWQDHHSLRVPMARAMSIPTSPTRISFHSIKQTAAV
Assay: cAMP functional assay for human CRHR2 (LANCE Ultra cAMP, TR-FRET)
Assay type: cell-based
Conditions: CHO-K1 cells expressing human CRHR2-alpha, agonist human urocortin2 at EC80, cAMP; read-out: IC50 against CRHR2
In short: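 First, starved and frozen CHO-K1 cells expressing the receptor are thawed into IBMX-containing HBSS buffer (pH 7.4). Next, compounds are added for 30 min at 25° C. Then agonist at EC80 (urocortin2 or CRF, per receptor) is added for another 30 min, followed by cAMP detection reagents.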

Row | IC50 [nM] | SMILES
1 | < 300 | COc1ccc(-n2c(=O)n(C[C@H]3CC[C@H](NC(=O)c4cc(Cl)cnc4C)CC3)c3cccc(C)c32)cn1 [Example 58, 5-chloro-N-((1r,4r)-4-((3-(6-methoxypyridin-3-yl)-4-methyl-2-oxo-2,3-dihydro-1H-benzo[d]imidazol-1-yl)methyl)cyclohexyl)-2-methylnicotinamide]
2 | < 300 | Cn1cc(CCn2c(=O)n(C[C@H]3CC[C@H](NC(=O)c4cc(Cl)cnc4C(F)(F)F)CC3)c3ccccc32)cn1 [Example 303, 5-chloro-N-((1r,4r)-4-((3-(2-(1-methyl-1H-pyrazol-4-yl)ethyl)-2-oxo-2,3-dihydro-1H-benzo[d]imidazol-1-yl)methyl)cyclohexyl)-2-(trifluoromethyl)nicotinamide]
3 | < 300 | Cc1ncc(Cl)cc1C(=O)N[C@H]1CC[C@H](Cn2c(=O)n(-c3cccc(-c4cnco4)c3)c3ccccc32)CC1 [Example 488, 5-chloro-2-methyl-N-((1r,4r)-4-((3-(3-(oxazol-5-yl)phenyl)-2-oxo-2,3-dihydro-1H-benzo[d]imidazol-1-yl)methyl)cyclo-hexyl)nicotinamide]
4 | < 300 | Cc1c[nH]c2ncc(-n3c(=O)n(C[C@H]4CC[C@H](NC(=O)c5cc(Cl)cnc5C(F)(F)F)CC4)c4ccccc43)cc12 [Example 425, 5-chloro-N-((1r,4r)-4-((3-(3-methyl-1H-pyrrolo[2,3-b]pyridin-5-yl)-2-oxo-2,3-dihydro-1H-benzo[d]imidazol-1-yl)methyl)cyclo-hexyl)-2-(trifluoromethyl) nicotinamide]
5 | < 300 | Cc1ncc(Cl)cc1C(=O)N[C@H]1CC[C@H](Cn2c(=O)n(-c3ccc4nn(C)c(C)c4c3)c3ccccc32)CC1 [Example 185, 5-chloro-N-((1r,4r)-4-((3-(2,3-dimethyl-2H-indazol-5-yl)-2-oxo-2,3-dihydro-1H-benzo[d]imidazol-1-yl)methyl)cyclohexyl)-2-methylnicotinamide]
6 | < 300 | CNC(=O)c1ccc(-n2c(=O)n(C[C@H]3CC[C@H](NC(=O)c4cc(Cl)cnc4C)CC3)c3cccc(C)c32)cn1 [Example 192, 5-(3-(((1r,4r)-4-(5-chloro-2-methylnicotinamido)cyclo-hexyl)methyl)-7-methyl-2-oxo-2,3-dihydro-1H-benzo [d]imidazol-1-yl)-N-methylpicolinamide]
7 | < 300 | Cn1cnc2ccc(-n3c(=O)n(C[C@H]4CC[C@H](NC(=O)c5cc(Cl)cnc5C(F)F)CC4)c4ccccc43)cc21 [Example 406, 5-chloro-2-(difluoromethyl)-N-((1r,4r)-4-((3′-methyl-2-oxo-3′H-[1,5′-bibenzo[d]imidazol]-3(2H)-yl)methyl)cyclohexyl) nicotinamide]
8 | < 300 | O=C(N[C@H]1CC[C@H](Cn2c(=O)n(-c3ccc4ncccc4c3)c3cccnc32)CC1)c1cc(Cl)cnc1C(F)(F)F [Example 360, 5-chloro-N-((1r,4r)-4-((2-oxo-1-(quinolin-6-yl)-1H-imidazo [4,5-b]pyridin-3(2H)-yl)methyl)cyclohexyl)-2-(trifluoromethyl) nicotinamide]
9 | < 300 | Cc1ncc(Cl)cc1C(=O)N[C@H]1CC[C@H](Cn2c(=O)n(-c3cccc(-c4cncn4C)c3)c3ccccc32)CC1 [Example 517, 5-chloro-2-methyl-N-((1r,4r)-4-((3-(3-(1-methyl-1H-imidazol-5-yl)phenyl)-2-oxo-2,3-dihydro-1H-benzo[d]imidazol-1-yl)methyl)cyclohexyl)nicotinamide]
10 | < 300 | Cc1ncc(Cl)cc1C(=O)N[C@H]1CC[C@H](Cn2c(=O)n(-c3ccc4ncsc4c3)c3ncccc32)CC1 [Example 200, N-((1r,4r)-4-((3-(benzo[d]thiazol-6-yl)-2-oxo-2,3-dihydro-1H-imidazo[4,5-b]pyridin-1-yl)methyl)cyclohexyl)-5-chloro-2-methylnicotinamide]
11 | < 300 | Cc1ncc(Cl)cc1C(=O)N[C@H]1CC[C@H](Cn2c(=O)n(-c3ccc(N(C)C)cn3)c3ccccc32)CC1 [Example 647, 5-chloro-N-((1r,4r)-4-((3-(5-(dimethylamino)pyridin-2-yl)-2-oxo-2,3-dihydro-1H-benzo [d]imidazol-1-yl)methyl)cyclo-hexyl)-2-methylnicotinamide]
12 | < 300 | COCCNc1ccc(-n2c(=O)n(C[C@H]3CC[C@H](NC(=O)c4cc(Cl)cnc4C)CC3)c3ccccc32)cn1 [Example 593, 5-chloro-N-((1r,4r)-4-((3-(6-((2-methoxyethyl)amino)pyridin-3-yl)-2-oxo-2,3-dihydro-1H-benzo[d]imidazol-1-yl)methyl)cyclo-hexyl)-2-methylnicotinamide]
13 | < 300 | COc1ccc(F)c(-n2c(=O)n(C[C@H]3CC[C@H](NC(=O)c4cc(Cl)cnc4C(F)F)CC3)c3ncccc32)c1 [Example 720, 5-chloro-2-(difluoromethyl)-N-((1r,4r)-4-((1-(2-fluoro-5-methoxyphenyl)-2-oxo-1H-imidazo[4,5-b]pyridin-3(2H)-yl)methyl)cyclohexyl) nicotinamide]
14 | < 300 | Cc1ncc(Cl)cc1C(=O)N[C@H]1CC[C@H](Cn2c(=O)n(-c3ccc(-c4cn[nH]c4)cc3)c3ccccc32)CC1 [Example 581, N-((1r,4r)-4-((3-(4-(1H-pyrazol-4-yl)phenyl)-2-oxo-2,3-dihydro-1H-benzo[d]imidazol-1-yl)methyl)cyclohexyl)-5-chloro-2-methylnicotinamide]
15 | < 300 | Cc1ncc(Cl)cc1C(=O)N[C@H]1CC[C@H](Cn2c(=O)n(-c3cncc(N4CCCC4)c3)c3ccccc32)CC1 [Example 482, 5-chloro-2-methyl-N-((1r,4r)-4-((2-oxo-3-(5-(pyrrolidin-1-yl)pyridin-3-yl)-2,3-dihydro-1H-benzo[d]imidazol-1-yl)methyl)cyclohexyl)nicotinamide]
16 | < 300 | N#Cc1cccnc1-n1c(=O)n(C[C@H]2CC[C@H](NC(=O)c3cc(Cl)cnc3C(F)F)CC2)c2ccccc21 [Example 375, 5-chloro-N-((1r,4r)-4-((3-(3-cyanopyridin-2-yl)-2-oxo-2,3-dihydro-1H-benzo[d]imidazol-1-yl)methyl)cyclohexyl)-2-(difluoromethyl)nicotinamide]
17 | < 300 | CN(C)c1cc(-n2c(=O)n(C[C@H]3CC[C@H](NC(=O)c4cc(Cl)cnc4C(F)(F)F)CC3)c3ccccc32)ccn1 [Example 663, 5-chloro-N-((1r,4r)-4-((3-(2-(dimethylamino)pyridin-4-yl)-2-oxo-2,3-dihydro-1H-benzo[d]imidazol-1-yl)methyl)cyclohexyl)-2-(trifluoromethyl)nicotinamide]
18 | < 300 | Cc1ncc(Cl)cc1C(=O)N[C@H]1CC[C@H](Cn2c(=O)n(-c3ccc4c(=O)[nH]cnc4c3)c3ccccc32)CC1 [Example 305, 5-chloro-2-methyl-N-((1r,4r)-4-((2-oxo-3-(4-oxo-3,4-dihydroquinazolin-7-yl)-2,3-dihydro-1H-benzol[d]imidazol-1-yl)methyl)cyclohexyl)nicotinamide]
19 | < 300 | O=C(N[C@H]1CC[C@H](Cn2c(=O)n(-c3ccc(NCC(F)(F)F)nc3)c3ccccc32)CC1)c1cc(Cl)cnc1C(F)F [Example 463, 5-chloro-2-(difluoromethyl)-N-((1r,4r)-4-((2-oxo-3-(6-((2,2,2-trifluoroethyl)amino)pyridin-3-yl)-2,3-dihydro-1H-benzo[d]imidazol-1-yl)methyl)cyclohexyl)nicotinamide]
20 | < 300 | COCCOc1ccc(-n2c(=O)n(C[C@H]3CC[C@H](NC(=O)c4cc(Cl)cnc4C(F)(F)F)CC3)c3ccccc32)cn1 [Example 416, 5-chloro-N-((1r,4r)-4-((3-(6-(2-methoxyethoxy)pyridin-3-yl)-2-oxo-2,3-dihydro-1H-benzo [d]imidazol-1-yl)methyl)cyclo-hexyl)-2-(trifluoromethyl) nicotinamide]
21 | < 300 | O=C(N[C@H]1CC[C@H](Cn2c(=O)n(-c3cccc4cccnc34)c3ccccc32)CC1)c1cc(Cl)cnc1C(F)(F)F [Example 353, 5-chloro-N-((1r,4r)-4-((2-oxo-3-(quinolin-8-yl)-2,3-dihydro-1H-benzo[d]imidazol-1-yl)methyl)cyclo-hexyl)-2-(trifluoromethyl) nicotinamide]
22 | < 300 | COc1ccc(-n2c(=O)n(C[C@H]3CC[C@H](NC(=O)c4cc(Cl)cnc4C(F)(F)F)CC3)c3ccccc32)cn1 [Example 228, 5-chloro-N-((1r,4r)-4-((3-(6-methoxypyridin-3-yl)-2-oxo-2,3-dihydro-1H-benzo[d]imidazol-1-yl)methyl)cyclo-hexyl)-2-(trifluoromethyl) nicotinamide]
23 | < 300 | COc1cccc(-n2c(=O)n(C[C@H]3CC[C@H](NC(=O)c4cc(Cl)cnc4C)CC3)c3ccccc32)c1C#N [Example 246, 5-chloro-N-((1r,4r)-4-((3-(2-cyano-3-methoxyphenyl)-2-oxo-2,3-dihydro-1H-benzo [d]imidazol-1-yl)methyl)cyclohexyl)-2-methyl-nicotinamide]
24 | < 300 | Cc1ncc(Cl)cc1C(=O)N[C@H]1CC[C@H](Cn2c(=O)n(-c3ccc4c(c3)nnn4C)c3ccccc32)CC1 [Example 255, 5-chloro-2-methyl-N-((1r,4r)-4-((3-(1-methyl-1H-benzo[d] [1,2,3]triazol-5-yl)-2-oxo-2,3-dihydro-1H-benzo[d]imidazol-1-yl)methyl)cyclohexyl) nicotinamide]
